Assay results published in patent publication US10899750B2, “Methods and compositions of small molecule modulators of hepatocyte growth factor (scatter factor) activity” (ANGION BIOMEDICA CORP., priority 2008, dated 2021).

Columns and labels:
HUVECs = assay: Nitric oxide production in endothelial cells (DAF2-DA fluorescence); assay type: cell-based, human; conditions: 24 hours incubation
Procedure: c. HGF and compounds of the invention stimulate nitric oxide production in endothelial cells. HUVECs are incubated with either vehicle, HGF/SF, instant compounds, or SNAP for 24 hours, loaded with the nitric oxide-sensitive fluorescence indicator DAF2-DA and imaged under a laser scanning confocal microscope.

[1] = test system: LX2 cells (an immortalized human hepatic stellate cell line); assay: Antifibrotic activity in hepatic stellate cells; assay type: cell-based; conditions: serum starved (activated) LX2 cells
Description: a. Antifibrotic Activity in Hepatic Stellate Cells.

MDCK cells = assay: Anti-apoptotic activity in cultured cell lines (adriamycin-induced apoptosis); assay type: cell-based
Description: a. HGF/SF and instant compounds have significant anti-apoptotic activity in cultured cell lines.

[2] = test system: NIH-3T3 cells transfected with the gene for the c-met receptor; assay: Protection from apoptosis in NIH-3T3 cells transfected with c-met receptor (MTT assay); assay type: cell-based
Description: b. Protection from apoptosis in NIH-3T3 cells transfected with c-met receptor.

| Compound | Nitric oxide production (DAF2-DA fluorescence) (HUVECs) | Collagen I mRNA expression [1] | Adriamycin-induced apoptosis (MDCK cells; MDCK cells) | Cell viability (MDCK cells; pretreatment, HUVEC and MDCK cell lines) | Protection from adriamycin-induced apoptosis (MTT assay) [2] |
| --- | --- | --- | --- | --- | --- |
| CC(=O)N[C@@H](C(=O)O)C(C)(C)SN=O (racemic) [SNAP, reference compound] | significant increase in fluorescence |  |  |  |  |
| HGF/SF: pleiotropic growth factor; heparin-binding heterodimeric protein composed of a 62 kDa α chain and a 34 kDa β chain | significant increase in fluorescence | decrease in collagen I mRNA expression | significantly block adriamycin-induced apoptosis | significantly improves the cell viability | protect the cells from adriamycin-induced apoptosis |
